Entries after “also recorded” stand apart in the source; their conditions may differ.
Tests used:
[1] = Detection probes on interproximal models of extracted human teeth; conditions: for degree of detection: early stage caries lesion, optical observation; for emission wavelength (nm) / excitation/absorbance wavelength (nm): probe bound to interproximal enamel caries; for optical observation of early stage caries lesion with bound probe (photograph): tooth preparation illuminated and photographed
Method: Interproximal models of extracted human teeth (molars and premolars) were fabricated using silicon impression materials. Interproximal enamel caries at about […] depth and at about 1.5 mm depth were prepared by using areas of interproximal contact regions. The dental preparations having synthetic caries were assessed by radiographic films (bitewings) and a microscope.
A cotton ball was saturated with the detection probe, and placed in contact with the region of the interproximal enamel caries. The bound probe was observed by illuminating over a varying set of different wavelengths of excitation light, followed by detecting light of fluorescent emissions. Furthermore, absorbance of the illuminating wavelengths was detected as appropriate for each probe.
Each tooth preparation having interproximal enamel caries and bound probe was illuminated and photographed.

[2] = RFU comparison of solutions to release OsteoSense 750 from HA
Method: Variables included conditions of pH, temperature, and presence of 1% calcium chloride.
Three conditions were tested: incubation for 15 minutes at 37° C. after vortexing; adjusting pH to 6.5 at 23° C. after vortexing; and addition of 1% calcium chloride to each solution and incubation at room temperature after vortexing.

[3] = 1% solution with calcium chloride (1%), room temperature
[4] = 1% solution, 15 minutes at 37° C.
[5] = 1% solution, pH 6.5, room temperature
[6] = 5% solution with calcium chloride (1%), room temperature
[7] = 5% solution, 15 minutes at 37° C.
[8] = 5% solution, pH 6.5, room temperature
[9] = 10% solution with calcium chloride (1%), room temperature
[10] = 10% solution, 15 minutes at 37° C.
[11] = 10% solution, pH 6.5, room temperature
[12] = 20% solution, 15 minutes at 37° C.
[13] = 20% solution with calcium chloride (1%), room temperature
[14] = 20% solution, pH 6.5, room temperature

SMILES | degree of detection [1] | emission wavelength (nm) [1] | excitation/absorbance wavelength (nm) [1] | % released of total OsteoSense [2, 3] | % released of total reference value [2, 3] | Raw RFU value [2, 3] | % released of total OsteoSense [2, 4] | % released of total reference value [2, 4] | Raw RFU value [2, 4] | % released of total OsteoSense [2, 5] | % released of total reference value [2, 5] | Raw RFU value [2, 5] | % released of total OsteoSense [2, 6] | % released of total reference value [2, 6] | Raw RFU value [2, 6] | % released of total OsteoSense [2, 7] | % released of total reference value [2, 7] | Raw RFU value [2, 7] | % released of total OsteoSense [2, 8] | % released of total reference value [2, 8] | also measured
C=Cc1c(C)c2cc3nc(c4c5[n-]c(cc6nc(cc1[n-]2)C(C)=C6CC)c(C)c5C(=O)[C@@H]4C(=O)OC)[C@@H](CCC(=O)OC/C=C(\C)CCC[C@H](C)CCC[C@H](C)CCCC(C)C)[C@@H]3C.[Mg+2] [Chlorophyll A] | Good | 670-900 nm | 614 nm |  |  |  |  |  |  |  |  |  |  |  |  |  |  |  |  |  | optical observation of early stage caries lesion with bound probe (photograph) [1]: Fluorescence of an early stage caries lesion was observed
COc1cccc2c1C(=O)c1c(O)c3c(c(O)c1C2=O)C[C@@](O)(C(=O)CO)C[C@@H]3O[C@H]1C[C@H](N)[C@H](O)[C@H](C)O1 [Doxorubicin] | Good | 630 nm | 480 nm |  |  |  |  |  |  |  |  |  |  |  |  |  |  |  |  |  | optical observation of early stage caries lesion with bound probe (photograph) [1]: Fluorescence of an early stage caries lesion was observed
CC1(C)C(=CC=C2CCCC(C=CC3=[N+](CCCCS(=O)(=O)[O-])c4ccc5ccccc5c4C3(C)C)=C2Cl)N(CCCCS(=O)(=O)[O-])c2ccc3ccccc3c21.[Na+] [IR820 (ICG)] | Good | 845 nm | 745 nm |  |  |  |  |  |  |  |  |  |  |  |  |  |  |  |  |  | 
O=P(O)(O)CP(=O)(O)O [methylene phosphoric acid (MDP), methylene phosphoric acid] |  |  |  | 1.45% | 1.54% | 0.54 RFU | 2.49% | 2.11% | 0.93 RFU | 3.59% | 2.50% | 1.35 RFU | 23.89% | 32.07% | 8.96 RFU | 34.33% | 30.09% | 12.88 RFU | 35.61% | 27.41% | Raw RFU value [2, 8]: 13.35 RFU; % released of total OsteoSense [2, 9]: 34.23%; % released of total reference value [2, 9]: 37.57%; Raw RFU value [2, 9]: 12.83 RFU; % released of total OsteoSense [2, 10]: 56.56%; % released of total reference value [2, 10]: 55.84%; Raw RFU value [2, 10]: 21.21 RFU; % released of total OsteoSense [2, 11]: 59.77%; % released of total reference value [2, 11]: 41.32%; Raw RFU value [2, 11]: 22.41 RFU; % released of total OsteoSense [2, 12]: −0.13%; Raw RFU value [2, 12]: −0.05 RFU; relative efficacy in removing OsteoSense 750 from HA ([2]; compared with the other agents): remove more OsteoSense 750 from HA than sodium phosphate monobasic or sodium phosphate dibasic at each concentration; also recorded: generally most effective for removing OsteoSense 750
O=P([O-])([O-])O.[Na+].[Na+] [sodium phosphate dibasic (D), sodium phosphate dibasic] |  |  |  | 0.01% | 0.02% | 0.00 RFU | 2.97% | 2.30% | 1.11 RFU | 1.81% | 2.08% | 0.68 RFU | 4.67% | 4.11% | 1.75 RFU | 14.21% | 13.12% | 5.33 RFU | 14.64% | 14.63% | Raw RFU value [2, 8]: 5.49 RFU; % released of total OsteoSense [2, 9]: 4.90%; % released of total reference value [2, 9]: 5.28%; Raw RFU value [2, 9]: 1.84 RFU; % released of total OsteoSense [2, 10]: 27.90%; % released of total reference value [2, 10]: 31.69%; Raw RFU value [2, 10]: 10.46 RFU; % released of total OsteoSense [2, 11]: 25.75%; % released of total reference value [2, 11]: 21.10%; Raw RFU value [2, 11]: 9.66 RFU; % released of total OsteoSense [2, 13]: 14.02%; % released of total reference value [2, 13]: 29.08%; Raw RFU value [2, 13]: 5.26 RFU; % released of total OsteoSense [2, 12]: 35.48%; % released of total reference value [2, 12]: 27.01%; Raw RFU value [2, 12]: 13.30 RFU; % released of total OsteoSense [2, 14]: 56.19%; % released of total reference value [2, 14]: 55.57%; Raw RFU value [2, 14]: 21.07 RFU
O=P([O-])(O)O.[Na+] [sodium phosphate monobasic (M), sodium phosphate monobasic] |  |  |  | 0.60% | 2.51% | 0.22 RFU | 3.10% | 3.65% | 1.16 RFU | 6.36% | 9.73% | 2.38 RFU | 5.34% | 11.39% | 2.00 RFU | 10.41% | 13.11% | 3.90 RFU | 23.87% | 31.74% | Raw RFU value [2, 8]: 8.95 RFU; % released of total OsteoSense [2, 9]: 10.27%; % released of total reference value [2, 9]: 20.25%; Raw RFU value [2, 9]: 3.85 RFU; % released of total OsteoSense [2, 10]: 23.92%; % released of total reference value [2, 10]: 32.36%; Raw RFU value [2, 10]: 8.97 RFU; % released of total OsteoSense [2, 11]: 32.44%; % released of total reference value [2, 11]: 45.17%; Raw RFU value [2, 11]: 12.16 RFU; % released of total OsteoSense [2, 13]: 20.04%; % released of total reference value [2, 13]: 39.19%; Raw RFU value [2, 13]: 7.51 RFU; % released of total OsteoSense [2, 12]: 27.67%; % released of total reference value [2, 12]: 50.11%; Raw RFU value [2, 12]: 10.37 RFU; % released of total OsteoSense [2, 14]: 33.90%; % released of total reference value [2, 14]: 51.43%; Raw RFU value [2, 14]: 12.71 RFU

From US20140093457A1, “Compositions, methods and kits for remineralization and inhibition of dental caries in teeth” (President and Fellows of Harvard College, priority 2010, published 2014)
